Paper PMC5766608, “Target engagement imaging of PARP inhibitors in small-cell lung cancer” (Nature Communications, 2018)

Legend:
[1] = target: T1, TNKS2 (Homo sapiens, UniProt Q9H2K2); experiment: PARP family enzyme activity inhibition screening (BPS Bioscience); assay type: biochemical; conditions: 100 nM inhibitor
T1 construct: purchased BPS Bioscience, San Diego, CA
T1 sequence (Q9H2K2 1-1166): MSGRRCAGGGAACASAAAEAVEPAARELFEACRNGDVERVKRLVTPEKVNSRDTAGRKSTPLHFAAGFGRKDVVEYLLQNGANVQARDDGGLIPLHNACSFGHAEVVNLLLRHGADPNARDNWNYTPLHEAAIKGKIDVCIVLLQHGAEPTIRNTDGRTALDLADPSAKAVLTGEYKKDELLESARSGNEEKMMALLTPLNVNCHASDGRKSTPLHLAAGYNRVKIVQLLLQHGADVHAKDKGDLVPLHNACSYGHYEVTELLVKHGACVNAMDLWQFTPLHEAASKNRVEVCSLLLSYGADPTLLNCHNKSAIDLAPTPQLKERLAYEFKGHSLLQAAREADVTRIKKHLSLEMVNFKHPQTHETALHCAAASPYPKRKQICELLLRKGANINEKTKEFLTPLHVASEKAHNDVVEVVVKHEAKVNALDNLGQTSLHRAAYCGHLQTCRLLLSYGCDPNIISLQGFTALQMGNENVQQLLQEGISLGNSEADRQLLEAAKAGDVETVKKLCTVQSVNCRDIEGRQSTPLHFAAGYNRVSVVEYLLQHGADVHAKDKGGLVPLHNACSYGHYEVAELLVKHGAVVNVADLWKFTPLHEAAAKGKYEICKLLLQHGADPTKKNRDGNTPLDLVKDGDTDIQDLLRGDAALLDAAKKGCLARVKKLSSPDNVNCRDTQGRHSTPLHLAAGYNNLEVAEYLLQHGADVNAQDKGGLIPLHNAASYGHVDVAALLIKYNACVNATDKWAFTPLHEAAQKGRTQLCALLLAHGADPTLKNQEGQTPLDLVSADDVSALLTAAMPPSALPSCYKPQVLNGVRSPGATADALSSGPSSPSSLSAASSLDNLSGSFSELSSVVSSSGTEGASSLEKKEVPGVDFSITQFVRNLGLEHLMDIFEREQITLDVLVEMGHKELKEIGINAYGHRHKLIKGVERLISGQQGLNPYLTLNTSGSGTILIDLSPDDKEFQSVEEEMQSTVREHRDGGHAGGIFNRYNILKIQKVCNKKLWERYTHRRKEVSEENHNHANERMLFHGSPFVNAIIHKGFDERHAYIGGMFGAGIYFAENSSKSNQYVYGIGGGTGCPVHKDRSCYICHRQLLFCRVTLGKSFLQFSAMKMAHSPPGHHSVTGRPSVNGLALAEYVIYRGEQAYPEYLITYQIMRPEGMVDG
Protocol: (§1) Fig. 1 Properties of PARP inhibitors. a Structures of 5 clinical therapeutic PARP inhibitors and the 2 PARP imaging agents. b Heatmap visualizing enzymatic activity screening of 10 small molecules against 12 PARP enzymes at 100 nM concentration (for additional concentrations, see Supplementary Fig. 1)
(§2) Assay was performed by BPS Bioscience, San Diego, CA. 100 µM DMSO solutions of each inhibitor were provided, and the assay was conducted after dilution to 100, 50, or 10 nM. […] Data was reported by BPS as % Enzyme Activity. Triplicates were combined to get a mean ± SD, and these were grouped and plotted onto a heatmap using Prism 7.
(§3) Supplementary Figure 1 | PARP enzyme family binding assays at additional concentrations.
(§4) histone substrate and biotin-labeled NAD+ at 100 nM (Fig. 1b), 50 nM (left) and 10 nM (right) for
(§5) each inhibitor and each enzyme.

[2] = target: T2, TNKS1 (Homo sapiens, UniProt O95271); experiment: as above; assay type: biochemical; conditions: 100 nM inhibitor
T2 construct: purchased BPS Bioscience, San Diego, CA
T2 sequence (O95271 1-1327): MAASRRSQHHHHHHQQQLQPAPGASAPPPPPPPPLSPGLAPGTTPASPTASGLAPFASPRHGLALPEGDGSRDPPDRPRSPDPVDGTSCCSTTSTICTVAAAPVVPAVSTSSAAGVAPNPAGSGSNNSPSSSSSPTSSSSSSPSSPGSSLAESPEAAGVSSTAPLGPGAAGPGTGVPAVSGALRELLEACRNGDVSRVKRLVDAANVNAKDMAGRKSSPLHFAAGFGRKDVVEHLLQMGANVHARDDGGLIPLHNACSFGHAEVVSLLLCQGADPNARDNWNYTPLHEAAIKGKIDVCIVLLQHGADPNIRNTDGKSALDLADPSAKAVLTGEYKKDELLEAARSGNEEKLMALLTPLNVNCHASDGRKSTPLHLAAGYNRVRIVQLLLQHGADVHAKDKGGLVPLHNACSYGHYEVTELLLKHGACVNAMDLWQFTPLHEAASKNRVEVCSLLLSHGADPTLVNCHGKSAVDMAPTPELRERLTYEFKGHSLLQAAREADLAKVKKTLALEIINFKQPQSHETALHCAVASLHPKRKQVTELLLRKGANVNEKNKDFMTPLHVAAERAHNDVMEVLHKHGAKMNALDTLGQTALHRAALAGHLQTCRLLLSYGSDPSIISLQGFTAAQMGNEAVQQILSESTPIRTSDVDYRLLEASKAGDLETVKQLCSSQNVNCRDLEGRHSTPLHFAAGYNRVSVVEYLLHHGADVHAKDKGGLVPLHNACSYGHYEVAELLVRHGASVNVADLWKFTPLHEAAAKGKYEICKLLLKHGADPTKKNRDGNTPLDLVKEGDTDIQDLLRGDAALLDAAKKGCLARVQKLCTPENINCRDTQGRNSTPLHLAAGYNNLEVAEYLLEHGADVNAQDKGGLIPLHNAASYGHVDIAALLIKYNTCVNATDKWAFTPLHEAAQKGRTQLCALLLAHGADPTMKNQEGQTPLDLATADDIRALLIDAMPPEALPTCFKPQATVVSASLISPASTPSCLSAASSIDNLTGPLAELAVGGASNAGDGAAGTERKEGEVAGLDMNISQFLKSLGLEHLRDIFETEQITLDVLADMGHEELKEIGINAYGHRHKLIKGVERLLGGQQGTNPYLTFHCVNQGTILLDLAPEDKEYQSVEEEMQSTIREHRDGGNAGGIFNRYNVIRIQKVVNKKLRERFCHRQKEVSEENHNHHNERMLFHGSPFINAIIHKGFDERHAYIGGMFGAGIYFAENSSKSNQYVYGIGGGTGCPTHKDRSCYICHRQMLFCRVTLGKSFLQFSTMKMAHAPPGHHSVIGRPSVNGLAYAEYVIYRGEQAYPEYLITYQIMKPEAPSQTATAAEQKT
Protocol: as §1, §2, §3, §4, §5

| Compound | Inhibition of TNKS2 enzyme activity [1] | Inhibition of TNKS1 enzyme activity [2] | inhibition at 0.1 µM [1] | inhibition at 0.1 µM [2] |
| --- | --- | --- | --- | --- |
| Cn1ncnc1[C@H]1c2n[nH]c(=O)c3cc(F)cc(c23)N[C@@H]1c1ccc(F)cc1 [Talazoparib, (8S,9R)-5-Fluoro-8-(4-fluorophenyl)-9-(1-methyl-1H-1,2,4-triazol-5-yl)-2,7,8,9-tetrahydro-3H-pyrido[4,3,2-de]phthalazin-3-one] | exhibited inhibition | exhibited inhibition |  |  |
| CC1=CC(C)=[N+]2C1=Cc1ccc(CCC(=O)N3CCN(C(=O)c4cc(Cc5n[nH]c(=O)c6ccccc56)ccc4F)CC3)n1[B-]2(F)F [PARPi-FL] |  |  | ≤ 5% | ≤ 5% |
| O=C(c1ccc(F)cc1)N1CCN(C(=O)c2cc(Cc3n[nH]c(=O)c4ccccc34)ccc2F)CC1 [^19F-PARPi] | ≤ 5% | ≤ 5% |  |  |
